Experimental data as given in ChEMBL document CHEMBL1949541, “Discovery of 7-arylsulfonyl-1,2,3,4, 4a,9a-hexahydro-benzo[4,5]furo[2,3-c]pyridines: identification of a potent and selective 5-HT₆ receptor antagonist showing activity in rat social recognition test” (Bioorg Med Chem Lett, 2012).

Assays:
[1] = target: T1, 5-hydroxytryptamine receptor 6 (Homo sapiens, UniProt P50406); assay: Displacement of [3H]LSD from human recombinant 5HT6 receptor
[2] = Oral bioavailability in rat at 5 mg/kg; assay type: ADME, organism-based; conditions: in vivo
Rattus norvegicus [3] = assay: Half life in rat at 1 mg/kg, iv; assay type: ADME, organism-based; design: dose 1 mg/kg, route intravenous; conditions: in vivo
Rattus norvegicus [4] = assay: Volume of distribution in rat at 1 mg/kg, iv; assay type: ADME, organism-based; design: dose 1 mg/kg, route intravenous; conditions: in vivo
Rattus norvegicus [5] = assay: Ratio of drug uptake in brain to plasma in rat at 5 mg/kg, po
[6] = target: T1, 5-hydroxytryptamine receptor 6; assay: Antagonist activity at human 5HT6 receptor expressed in human astrocytoma cells assessed as inhibition of cAMP production; assay type: functional, cell-based
[7] = target: 5-hydroxytryptamine receptor 6 (Rattus norvegicus, UniProt P31388); assay: Displacement of [3H]LSD from rat recombinant 5HT6 receptor
Chain of 5-hydroxytryptamine receptor 6 (Rattus norvegicus, UniProt P31388) (P31388 whole entry): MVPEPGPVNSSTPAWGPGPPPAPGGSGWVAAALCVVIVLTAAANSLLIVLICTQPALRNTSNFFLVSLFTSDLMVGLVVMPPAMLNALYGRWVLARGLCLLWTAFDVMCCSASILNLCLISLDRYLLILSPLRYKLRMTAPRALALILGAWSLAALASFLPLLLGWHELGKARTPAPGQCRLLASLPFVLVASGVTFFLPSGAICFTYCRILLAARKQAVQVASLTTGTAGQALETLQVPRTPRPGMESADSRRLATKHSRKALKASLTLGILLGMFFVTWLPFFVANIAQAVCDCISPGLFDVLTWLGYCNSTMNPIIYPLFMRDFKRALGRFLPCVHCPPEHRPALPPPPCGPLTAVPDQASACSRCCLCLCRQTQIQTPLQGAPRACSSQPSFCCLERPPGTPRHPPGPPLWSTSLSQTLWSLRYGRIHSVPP

T1 sequence (P50406 whole entry): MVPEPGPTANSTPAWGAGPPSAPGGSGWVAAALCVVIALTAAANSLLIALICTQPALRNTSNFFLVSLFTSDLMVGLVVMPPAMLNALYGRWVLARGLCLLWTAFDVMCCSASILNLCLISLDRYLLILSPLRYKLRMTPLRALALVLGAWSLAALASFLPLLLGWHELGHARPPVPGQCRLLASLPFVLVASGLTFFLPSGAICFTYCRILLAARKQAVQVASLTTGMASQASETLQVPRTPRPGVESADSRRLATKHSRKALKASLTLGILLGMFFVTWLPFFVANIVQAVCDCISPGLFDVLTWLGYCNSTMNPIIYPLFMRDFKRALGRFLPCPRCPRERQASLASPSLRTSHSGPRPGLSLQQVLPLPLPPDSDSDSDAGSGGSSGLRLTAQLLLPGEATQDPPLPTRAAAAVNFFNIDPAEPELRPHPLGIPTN

Ki [1]: 12 nM
bioavailability [2]: 11%
t1/2 (Rattus norvegicus [3]): 24 min
Vd (Rattus norvegicus [4]): 1 L/kg
BPR (Rattus norvegicus [5]): 2.29
IC50 [6]: 45 nM
Ki [7]: 55 nM
Compound: COc1cc(OC(C)C)cc(S(=O)(=O)c2ccc3c(c2)O[C@H]2CNCC[C@@H]32)c1.Cl (single isomer, unassigned; enantiomer 2)
